The IC50 is the midpoint of a concentration-inhibition curve. Read a low IC50 as greater potency in that assay.

One series concerns the target T1, CYP3A4 (Homo sapiens, UniProt P08684).
T1 construct: recombinant, E. coli membrane fractions; with rat NADPH-P450 reductase (CPR)
Put plainly: hydroxylation by recombinant CYP3A4 membranes, HPLC and LC-MS (turnover rate). In kind it is biochemical.

The target in another series is T2, HMG-CoA reductase (Homo sapiens, UniProt P04035).
T2 construct: gene HMGCR
T2 sequence (P04035 1-888): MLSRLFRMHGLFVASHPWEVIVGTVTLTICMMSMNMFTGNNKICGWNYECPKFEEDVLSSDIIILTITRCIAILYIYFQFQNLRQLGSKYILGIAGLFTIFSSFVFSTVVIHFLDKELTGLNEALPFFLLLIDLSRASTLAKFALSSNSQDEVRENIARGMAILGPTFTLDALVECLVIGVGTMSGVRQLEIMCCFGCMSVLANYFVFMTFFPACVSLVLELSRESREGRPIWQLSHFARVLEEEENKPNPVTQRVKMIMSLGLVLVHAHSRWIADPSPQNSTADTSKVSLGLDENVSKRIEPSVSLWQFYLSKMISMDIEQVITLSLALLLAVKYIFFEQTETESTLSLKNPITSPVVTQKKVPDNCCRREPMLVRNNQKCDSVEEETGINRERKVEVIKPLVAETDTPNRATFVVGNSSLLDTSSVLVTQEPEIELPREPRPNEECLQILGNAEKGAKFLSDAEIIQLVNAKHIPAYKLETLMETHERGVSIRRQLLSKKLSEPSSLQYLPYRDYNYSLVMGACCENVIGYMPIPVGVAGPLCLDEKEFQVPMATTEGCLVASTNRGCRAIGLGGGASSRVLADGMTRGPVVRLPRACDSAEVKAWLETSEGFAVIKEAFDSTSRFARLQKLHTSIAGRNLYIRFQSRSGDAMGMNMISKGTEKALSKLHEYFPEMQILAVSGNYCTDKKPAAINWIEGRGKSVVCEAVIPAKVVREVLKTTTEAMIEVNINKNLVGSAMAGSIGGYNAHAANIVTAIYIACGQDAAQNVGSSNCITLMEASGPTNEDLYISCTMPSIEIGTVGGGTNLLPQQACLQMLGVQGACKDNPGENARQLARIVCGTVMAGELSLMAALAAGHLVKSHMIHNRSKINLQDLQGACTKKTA
Put plainly: HMG-CoA reductase assay kit (Sigma-Aldrich), spectrophotometry at […] nm. In kind it is biochemical.

T1 sequence (P08684 2-503): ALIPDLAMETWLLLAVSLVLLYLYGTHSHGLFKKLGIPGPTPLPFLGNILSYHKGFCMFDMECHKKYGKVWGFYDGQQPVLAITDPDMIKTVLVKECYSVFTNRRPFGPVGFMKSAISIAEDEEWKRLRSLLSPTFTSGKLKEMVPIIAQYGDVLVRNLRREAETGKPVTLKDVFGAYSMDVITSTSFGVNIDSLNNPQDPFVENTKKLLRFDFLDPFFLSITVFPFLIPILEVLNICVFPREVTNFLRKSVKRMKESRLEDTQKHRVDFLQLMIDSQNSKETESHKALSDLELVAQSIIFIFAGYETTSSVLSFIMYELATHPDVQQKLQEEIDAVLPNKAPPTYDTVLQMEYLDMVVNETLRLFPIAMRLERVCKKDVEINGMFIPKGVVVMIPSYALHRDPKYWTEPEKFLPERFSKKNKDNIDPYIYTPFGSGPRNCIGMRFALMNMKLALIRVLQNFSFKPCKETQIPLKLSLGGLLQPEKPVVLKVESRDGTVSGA
T1 sequence (P00388 2-678, further chain): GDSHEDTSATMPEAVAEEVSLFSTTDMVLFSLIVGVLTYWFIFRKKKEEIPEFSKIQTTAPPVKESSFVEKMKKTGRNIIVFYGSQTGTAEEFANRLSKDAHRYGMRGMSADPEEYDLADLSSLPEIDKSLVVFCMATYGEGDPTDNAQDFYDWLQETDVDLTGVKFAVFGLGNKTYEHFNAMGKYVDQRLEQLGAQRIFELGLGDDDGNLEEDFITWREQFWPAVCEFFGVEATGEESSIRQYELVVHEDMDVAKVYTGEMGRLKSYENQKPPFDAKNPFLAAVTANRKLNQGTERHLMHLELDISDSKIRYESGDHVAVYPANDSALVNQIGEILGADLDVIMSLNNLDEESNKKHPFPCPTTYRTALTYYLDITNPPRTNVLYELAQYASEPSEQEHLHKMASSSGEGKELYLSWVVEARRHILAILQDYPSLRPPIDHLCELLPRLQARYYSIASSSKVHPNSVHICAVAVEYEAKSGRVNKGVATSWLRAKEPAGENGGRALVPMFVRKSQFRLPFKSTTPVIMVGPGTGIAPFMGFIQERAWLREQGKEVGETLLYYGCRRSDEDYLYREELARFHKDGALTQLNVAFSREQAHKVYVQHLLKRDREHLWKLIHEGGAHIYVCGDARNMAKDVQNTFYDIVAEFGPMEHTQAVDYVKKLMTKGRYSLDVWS

`C[C@H]1C=C2C=C[C@H](C)[C@H](CC[C@@H]3C[C@@H](O)CC(=O)O3)[C@H]2[C@@H](O)C1` [monacolin J]: the “hydroxylation by recombinant CYP3A4 membranes, HPLC and LC-MS (turnover rate)” value on CYP3A4 was 0.040 nmol product min^−1 nmol P450^−1.

The molecule `C[C@H]1C=CC2=C[C@H](CO)C[C@H](O)[C@@H]2[C@H]1CC[C@@H]1C[C@@H](O)CC(=O)O1` [6′a-hydroxymethyl monacolin J] had an IC50 on HMG-CoA reductase of 285 µM.

The values above are taken from article PMC8541633, “A Novel Statin Compound from Monacolin J Produced Using CYP102A1-Catalyzed Regioselective C-Hydroxylation” (Pharmaceuticals, 2021).
